Series [1] in a line: Molar enthalpy of transition or fusion. To be noted: Crystal; DSC.
The conditions of series [2]: Crystal; DTA.

± gives the expanded uncertainty stated by the source.

`CCCCCCCCCC` [decane]: in series [1], the “Molar enthalpy of transition or fusion” value turned out to be 6.89 ± 0.196 kcal/mol. For the same compound, the Normal melting temperature in series [2] was -28.52 ± 0.5 °C.
For `CCCCCCCCCCCC(=O)OCC` [ethyl dodecanoate], in that order: 9.15 ± 0.263 kcal/mol and -0.20 ± 0.5 °C.
`CCCCCCCCCCCCCCCC(=O)OCC` [ethyl hexadecanoate]: the Normal melting temperature in series [2] was determined as 24.78 ± 0.5 °C.

The values are drawn from the NIST ThermoML archive (doi:10.1016/j.fluid.2016.01.044).
